One experiment has as its system PGE2. The experiment can be described thus: PGE2 production assay (EIA) in SW837 cells. In kind it is cell-based, human. The following applies: 10, 20 or 40 μg/mL, 18 hours, 20 μM arachidonic acid. As to the method:
SW837 human colon cancer cells were plated into 35-mm dishes and grown to 60% confluence. The cells were then treated with EGCG (0, 10, 20, or 40 μg/mL) in serum minus medium containing 20 μM arachidonic acid (Sigma) for 18 hours. The cell free medium was then collected and the amounts of PGE2 released by cells into the medium were measured using an EIA kit (Cayman Chemicals, Ann Arbor, Mich.), according to the manufacturer's instructions. Production of PGE2 was normalized to the protein concentration of the cells.

Experiment [1] relates to HT29 human colon cancer cells. In words: DilC16-labelled plasma membrane, extraction using cold Triton X-100. In kind it is cell-based. As to the method: HT29 human colon cancer cells were treated with the fluorescent lipid analog DilC16, which preferentially incorporates into ordered domains in the plasma membrane.
The subject of a further experiment is IGF-1R proteins. In words: Western blot analysis for IGF in SW837 cells, total receptor. In kind it is cell-based, human. Conditions: 20 μg/mL, during the time course. An excerpt: Total cellular protein was extracted and equivalent amounts of protein were examined by western blot analysis, as described above in Example 6. Cell lysates were separated by SDS-PAGE using 7.5 to 15% polyacrylamide gels and transferred onto Immobilon-P transfer membranes (Millipore Co., Bedford, Mass.). The primary antibodies for IGF-1R[…](#3022) and p-IGF-1R (#3021) were purchased from Cell Signaling Technology (Beverly, Mass.). The primary antibodies for IGF-1R[…](sc-713) and IGFBP-3 (sc-6003) were purchased from Santa Cruz Biotechnology (Santa Cruz, Calif.). The primary antibodies for IGF-1 (clone Sm1.2) and actin (A2066) were purchased from Upstate Cell Signaling Solutions (Charlottesville, Va.) and Sigma Chemical Co. (St Louis, Mo.), respectively. An antibody to actin was used as a loading control. Anti-mouse IgG (Amersham Pharmacia Biosciences, Piscataway, N.J.), anti-rabbit IgG (Amersham Pharmacia Biosciences), or anti-goat IgG (Santa Cruz Biotechnology) antibodies were used as the secondary antibodies. Each membrane was developed using an ECL-enhanced chemiluminescence system (Amersham Biosciences).
In general terms: A western blot detects proteins with antibodies after separation by electrophoresis.

Experiment [2] concerns HepG2 human liver cancer cells. The experiment can be described thus: MTT cell proliferation assay. In kind it is cell-based. The method, then:
Using the MTT cell proliferation assay described in Example 21, and substituting HepG2 human liver cancer cells in place of SW837 cells, the effects of EGCG (20 μg/mL), an illustrative Synergistic Polyphenol Compound, on the production of IGF-1, IGF-2 and IGFBP-3 was determined. […] Accordingly, the Synergistic Polyphenol Compounds are useful for treating or preventing liver cancer.
For orientation: Tetrazolium dyes change colour on reduction, which living cells bring about.

A further experiment has as its system COX-2 mRNA. In words: Semiquantitative RT-PCR analysis in SW837 cells. In kind it is cell-based, human. The following applies: 20 μg/mL. As to the method: RNA extraction and semiquantitative RT-PCR analysis were performed using the methods described in Suzui, et al., Cancer Res., 62:3997-4006 (2002). Total RNA was isolated from SW837 human colon cancer cells using Trizol reagent (Invitrogen) according to the manufacturer's instructions. cDNA was amplified from 1 μg of total RNA using SuperScript one-step RT-PCR with the platinum Taq system (Invitrogen). PCR was conducted for 25 cycles in a thermal controller (Programmable Thermal Controller; MJ Research Inc., Watertown, Mass.). The COX-2 specific primer sets […]-2 ([NT]) and […]-2 ([NT]) were designed using the sequence described in Hla et al., Proc. Natl. Acad. Sci. USA, 89:7384-7388 […]. Actin specific primer sets and the amplification cycle conditions were as described in Suzui, et al., Cancer Res., 62:3997-4006 (2002). The intensities of mRNA bands were quantified using NIH Image software version 1.62.

The next experiment has as its system p-Akt. The experiment can be described thus: Western blot analysis in SW837 cells. In kind it is cell-based, human. Conditions: 20 μg/mL, at 6 hours. An excerpt: (§1) Total cellular protein was extracted and equivalent amounts of protein can be determined by western blot analysis using the methods described in Suzui, et al., Cancer Res., 62:3997-4006 (2002). The primary antibodies for several proteins are described in Masuda et al., Clin Cancer Res., 7:4220-4229 (2001); Masuda et al., Clin Cancer Res., 9:3486-3491 (2003); and Shimizu et al., Clin Cancer Res., 11:2735-2746 (2005). The primary antibodies for HER3 (2F12) and COX-2 (PG27) were purchased from Upstate Cell Signaling Solutions (Charlottesville, Va.) and Oxford Biochemical Research (Oxford, Mich.), respectively. To examine the levels of expression of the phosphorylated (i.e. activated) form of the HER3 protein (p-HER3), cellular lysates (1 mg/mL) were incubated with 4 μg anti-HER3 antibody overnight at 4° C. with slow agitation, and immune complexes were then precipitated by adding protein A/G agarose (sc-2003, Santa Cruz Biotechnology, Santa Cruz, Calif.). After incubating for 2 hours at 4° C., the beads were washed with lysis buffer, and bound proteins were eluted into the sample buffer and subjected to western blot analysis, as described above. The p-HER3 protein was then detected by using an anti-phospho-tyrosine antibody (PY-20-HRP, BD Transduction Laboratories, San Diego, Calif.). An antibody to actin was used as a loading control. Each membrane was developed using an ECL-enhanced chemiluminescence system (Amersham Biosciences, Piscataway, N.J.).

The subject of the next experiment is p-EGFR. In words: Western blot analysis in SW837 cells. In kind it is cell-based, human.
Text: as §1

Another experiment concerns p-ERK. The experiment can be described thus: Western blot analysis in SW837 cells. In kind it is cell-based, human. Conditions: 20 μg/mL, at 12 hours.
Text: as §1

The subject of a further experiment is p-HER2. The experiment can be described thus: Western blot analysis in SW837 cells. In kind it is cell-based, human.
Text: as §1

In another experiment the test system is COX-2 protein. In words: Western blot analysis in SW837 cells. In kind it is cell-based, human. The following applies: for cellular level of the COX-2 protein: 20 μg/mL.
Text: as §1

The test system of another experiment is Bcl-xL. In words: Western blot analysis in SW837 cells. In kind it is cell-based, human. The following applies: 1.0 μg/mL, 96 hours.
Text: as §1

Setting [3] is: HT29, Triton X-100 sensitivity and DilC16 incorporation.

Turning to (−)-epigallocatechin gallate, the “levels of PGE2” value in the experiment on PGE2 is given as “decrease”. The “lowest concentration at which the membrane effects were detected” value in experiment [1] (setting [3]) is on record as 2 mg/mL. The “time within which the membrane effects were detected” value in [1] (setting [3]) is at most 5 min. In addition, in [1] (HT29 pretreated with DilC16), the “sensitivity of the plasma membrane to extraction using cold Triton X-100” value is “marked increase”. Also, in the experiment on IGF-1R proteins, the “levels of the IGF-1R proteins (total)” value is on record as “no significant changes”. The “IC50, growth of HepG2 cells” value in [2] stood at 21 µg/mL. Moreover, the “cellular level of the COX-2 mRNA” value with COX-2 mRNA (at 48 hours) is “marked decrease”; with COX-2 mRNA (beginning at about 6 hours) it was “progressive decrease”. Besides, the “levels of the p-Akt protein” value in the experiment with p-Akt is on record as “marked decreases”. Besides, the “levels of the p-EGFR protein” value in the experiment on p-EGFR (1.0 μg/mL, 96 hours) is listed as “decrease”; in the experiment with p-EGFR (20 μg/mL, within 6 hours), “marked decrease”. Further, in the experiment with p-ERK, the “levels of the p-ERK protein” value is on record as “marked decreases”. Further, the “levels of the p-HER2 protein” value in the experiment with p-HER2 (1.0 μg/mL, 96 hours) is reported as “decrease”; in the experiment on p-HER2 (20 μg/mL, within 6 hours) it was “marked decrease”. For the same substance, the “levels of the COX-2 protein” value with COX-2 protein (1.0 μg/mL, 96 hours) is on record as “decrease”. The “cellular level of the COX-2 protein” value in the experiment on COX-2 protein (after 12 to 24 hours) is reported as “marked decrease”; in the experiment on COX-2 protein (at 48 hours) it was “almost undetectable”. In addition, the “levels of the Bcl-xL protein” value with Bcl-xL is given as “decrease”.

For the origin of these results see patent US20070054868A1, “Synergistic polyphenol compounds, compositions thereof, and uses thereof” (The Trustees of Columbia University in the City of New York, priority 2005, published 2007).
